Key:
Format in all cases: cell-based
[1] = system: LPS-induced production of TNF in PBMC; assay: LPS-induced TNF production in PBMC (ELISA); details: 1 μM MTX alone, 72 hours, 10 ng/mL LPS
Protocol: (§1) Blood was recruited from healthy donors at St. Olays Hospital HF, the Bloodbank. Peripheral blood mononuclear cells (PBMC) were isolated using SepMate™ separation tubes with LymphoPrep density gradient medium according to the STEMCELL Technology recommendations. For experiments, 1×10^6 cells/well/1 mL RPMI medium supplemented with 5% FBS, 0.3 mg/ml glutamine and 0.1 mg/ml gentamicin with or without inhibitors Compound A1, methotrexate hydrate (MTX) (Sigma-Aldrich, #A6770) or a combination of the two inhibitors, prior to the addition of lipopolysaccharides as a potent inducer of inflammation (LPS from E. coli 026:B6 γ-irradiated, Sigma-Aldrich, #L2654). Following treatment (72 hrs., 37° C., 5% CO2), the cell suspensions were centrifuged to isolate the supernatant from the cell fraction. Samples were stored at −80° C. until analysis.
(§2) Cell supernatant samples were analyzed by enzyme-linked immunosorbent assay (EIA) for PGE2 (Cayman #514010), TNF and IL1-β (RnD Systems, DuoSet #DY210 and #DY201) according to the manufacturers protocols. Cell supernatants were assayed at dilutions 1:1 for TNF; 1:10 for IL1-β and 1:100 for PGE2, except supernatants from untreated PBMC (negative control) that were assayed undiluted in all assays. Supernatants were hybridized over-night incubation, enzymatic conversion of substrate were read at OD420 nm. […]

[2] = system: LPS-induced IL-1b levels in PBMC; assay: LPS-induced IL-1β production in PBMC (ELISA); details: 1 μM MTX alone, 72 hours, 10 ng/mL LPS
Protocol: as §1, §2

HaCaT cells = assay: Resazurin assay, HaCaT keratinocyte proliferation and viability; details: Homo sapiens, 10 μM MTX alone, 24 hours of treatment, read-out: reduction of proliferation and viability of HaCaT cells
Protocol: The spontaneously immortalized, nontumorigenic skin keratinocyte cell line HaCaT was maintained in DMEM supplemented with 5% (v/v) FBS, 0.3 mg/ml glutamine and 0.1 mg/ml gentamicin at 37° C. with 5% CO2 in a humidified atmosphere. Subculture using trypsin-EDTA was performed every 3-4 days with split ratio of 1:3-1:4 to ensure actively proliferating cells. Cells were seeded in 96 well plates in fully supplemented medium at a density of 2500 cells per well. Following 72 hours of cultivation, the cells were starved of serum in 0.25% FBS/DMEM overnight to halt proliferation, synchronize and to increase cell sensitivity to treatment. On day 4, the cells were treated with cPLA2α inhibitor Compound A1 and folic acid analogue methotrexate hydrate (MTX) (Sigma Aldrich #A6770) and left to incubate for […] in incubator at 37° C. with 5% CO2 in a humidified atmosphere before fluorescence was read at 544 nm excitation and 590 nm emission wavelength. The cells were observed under the microscope to evaluate possible morphology changes and signs of stress before addition of resazurin. The experiments were performed in series of 8 wells per treatment and repeated 2-3 times.

## CN(Cc1cnc2nc(N)nc(N)c2n1)c1ccc(C(=O)N[C@@H](CCC(=O)O)C(=O)O)cc1 [MTX, methotrexate hydrate]
[1]
  reduction of LPS-induced TNF levels: ~20%
[2]
  reduction of LPS-induced IL-1b levels: ~20%
HaCaT cells
  cytotoxicity at 10 µM: ~15%

From patent publication US20190216815A1, “COMBINATION THERAPY COMPRISING A POLYUNSATURATED KETONE AND A FOLIC ACID PARTNER” (Avexxin AS, priority 2016, published 2019)
